The subject of data set [1] is HIV. The settings on record: cited from earlier work.
The target of data set [2] is T1, trypsin (Bos taurus, UniProt P00760).
T1 sequence (P00760 24-246): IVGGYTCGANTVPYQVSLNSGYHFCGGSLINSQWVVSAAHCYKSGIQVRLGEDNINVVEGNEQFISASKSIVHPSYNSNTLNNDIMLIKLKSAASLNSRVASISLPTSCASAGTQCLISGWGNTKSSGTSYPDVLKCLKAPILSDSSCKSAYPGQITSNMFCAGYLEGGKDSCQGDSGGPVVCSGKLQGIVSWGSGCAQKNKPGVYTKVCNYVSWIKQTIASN
Nature of the data set: Inhibition of trypsin. The format is biochemical.

Data set [3] concerns HIV-1. The following applies: cited from earlier work.
Data set [4] relates to HIV-1. The following applies: T cells infected in vitro; cited from earlier work.
The subject of data set [5] is HRV14. Nature of the data set: Cytopathogenic effect of HRV14 in HeLa-Ohio cells. The format is cell-based. The following applies: 0.03 to 100 μM, added 1 hour after infection. On the procedure:
HeLa-Ohio cells cultured until they have become confluent, are infected with a suspension of HRV14 virus. The cytopathogenic effect of the virus is evaluated by staining the cells with a 0.5% solution of crystal violet and 20% of methanol; after rinsing the plates with water, the optical density is read at 550 nm.
For the rest of the experiment, the cells are infected with a viral suspension with a titre such that 50% of the cells are killed after 3 days on control cells not receiving any treatment. 1 hour after the infection, the test product (AmB or DABF-AmB) is added at concentrations ranging from 0.03 to 100 μM. The percentage inhibition of the cytopathogenic effect is determined as follows:
OD (treated infected cells)-OD (infected cells)!
OD (healthy cells)-OD (infected cells)!
The effect of the addition of DABF-AmB was tested at various times: preincubation of the cells with DABF-AmB before the viral infection; addition of DABF-AmB at the time of the infection; addition of DABF-AmB after the infection, during the period of viral proliferation.
On the technique in general: Cytopathic effects are the visible damage that an infection or toxin causes in cultured cells.

Data set [6] can be described thus: Cytotoxicity in HeLa-Ohio cells. The format is cell-based, human. The settings on record: human, hela-ohio cells; read-out: concentration above which cytotoxic.
Data set [7] concerns DNA and RNA viruses containing a lipid envelope. The settings on record: in vitro; cited from earlier work.
The conditions of data set [8]: patients; cited from earlier work.
Setting [9] is: read-out: % inhibition of trypsin relative to a control without inhibitor.

Read-outs that look alike come from different tables or passages of the source.

The text below walks through data of patent US5514662A, “Use of amphotericin B derivatives as protease inhibitors” (priority 1991, dated 1996).

As to `OC[C@@H]1CC[C@H](n2cnc3c(O)ncnc32)O1` [ddI, 2',3'-dideoxyinosine], the “clinical condition of AIDS patients” value in data set [1] is listed as “improvement of the clinical condition of patients”.

On to `Cc1cn([C@H]2C[C@H](N=[N+]=[N-])[C@@H](CO)O2)c(=O)[nH]c1=O` [AZT, 3'-azido-2',3'-dideoxythymidine], for which the “side effects of treatment” value in data set [1] (human, in vivo) is “severe side effects of treatment with AZT, in particular a degeneration of bone marrow”. Moreover, in data set [1], the “clinical condition of AIDS patients” value is “improvement of the clinical condition of patients”.

By inhibition is commonly meant the share of the control response that was lost under treatment. Turning to `C[C@@H]1[C@H](O)[C@@H](C)/C=C/C=C/C=C/C=C/C=C/C=C/C=C/[C@H](O[C@@H]2O[C@H](C)[C@@H](O)[C@H](NC(=O)C(N)CC(=O)O)[C@@H]2O)C[C@@H]2O[C@](O)(C[C@@H](O)C[C@@H](O)[C@H](O)CC[C@@H](O)C[C@@H](O)CC(=O)O[C@H]1C)C[C@H](O)[C@H]2C(=O)O` (some centres unmarked) [N-aspartyl-AmB], in data set [2] (1 μM, FIG. 1, read-out: % inhibition of trypsin relative to a control without inhibitor), the inhibition at 1 µM is about 40%.

“N N'-(2,4'-methylmorpholino)-N"-ethylguanyl!amphotericin B [MCG]”: the cell-protecting properties entry in data set [3] is given as “does not possess, according to this study, cell-protecting properties”. Also, the direct antiviral action entry in data set [3] (preincubation with the virus) is “has a direct antiviral action”.

As to `COC(=O)[C@H]1[C@@H]2C[C@@H](O[C@@H]3O[C@H](C)[C@@H](O)[C@H](N)[C@@H]3O)/C=C/C=C/C=C/C=C/C=C/C=C/C=C/[C@H](C)[C@@H](O)[C@@H](C)[C@H](C)OC(=O)C[C@H](O)C[C@H](O)CC[C@@H](O)[C@H](O)C[C@H](O)C[C@](O)(C[C@@H]1O)O2` [AME, methyl ester of amphotericin B], the inhibition at 1 µM in data set [2] (setting [9]) was about 10%. For the same molecule, the “inhibition of cell death and of viral expression” value in data set [4] is “inhibitors of cell death and of viral expression”. In data set [3] (HIV-infected lymphocytes preincubated), the “capacity of preincubated HIV-infected lymphocytes to form syncytia with uninfected cells” value is “increased”. Besides, in data set [3] (lymphocytes preincubated), the “inhibition of infection by preincubation of healthy lymphocytes prior to infection” value was “inhibits the infection”.

`C[C@@H]1[C@H](O)[C@@H](C)/C=C/C=C/C=C/C=C/C=C/C=C/C=C/[C@H](O[C@@H]2O[C@H](C)[C@@H](O)[C@H](N)[C@@H]2O)C[C@@H]2O[C@](O)(C[C@@H](O)C[C@@H](O)[C@H](O)CC[C@@H](O)C[C@@H](O)CC(=O)O[C@H]1C)C[C@H](O)[C@H]2C(=O)O` [AmB, amphotericin B]: the “inhibition of trypsin (in words)” value in data set [2] was “a certain inhibitory activity on trypsin”. This molecule also displayed an inhibition at 10 µM in data set [2] (10^-5 M) of 30%. Also, the inhibition at 1 µM in data set [2] (10^-6 M, read-out: % of inhibition of trypsin) was 10%; in data set [2] (setting [9]), about 10%. The molecule also registered an inhibition at 0.1 µM in data set [2] (10^-7 M) of 5%. For the same molecule, the “antiviral activity on HRV14 (in words)” value in data set [5] is given as “no detectable antiviral activity”. For the same molecule, the MCC in data set [6] was over 5 µM. For the same molecule, the “activity against enveloped DNA and RNA viruses and herpes virus strains” value in data set [7] is on record as “active in vitro”. For the same molecule, in data set [8], the “side effects of prolonged treatment” value is listed as “frequent side effects such as fever or serious nephrotoxicity”.

As for `CNC[C@H](O)[C@@H](O)[C@H](O)[C@H](O)CO` [N-methylglucamine, reference compound], the “antiviral activity on HRV14 (in words)” value in data set [5] is given as “no effect on the virus”.
